Results reported in BigSolDB 2.1.

COc1ccc(CC(=O)O)cc1
solubility (mole fraction)
Settings	283.15 K	288.15 K	293.15 K	298.15 K	303.15 K	308.15 K	313.15 K	318.15 K	323.15 K
in acetonitrile	0.0423	0.0499	0.0587	0.0687	0.0803	0.0941	0.112	0.135	0.166
in anisole	0.0323	0.0425	0.0519	0.0626	0.0737	0.0858	0.0999	0.118	0.139
in isopropanol	0.114	0.142	0.169	0.198	0.228	0.258	0.289	0.323	0.351
in morpholine	0.0094	0.0139	0.0185	0.0239	0.0293	0.0348	0.0404	0.0459	0.0503
in toluene	0.0166	0.0209	0.0264	0.0337	0.0415	0.0522	0.0641	0.0784	0.0941
in water	0.0011	0.002	0.0031	0.0043	0.0057	0.0069	0.0079	0.0092	0.0105
